The target of experiment [1] is T1, Replicative DNA helicase DnaB (Mycobacterium tuberculosis, UniProt P9WMR3).
T1 sequence (P9WMR3 whole entry): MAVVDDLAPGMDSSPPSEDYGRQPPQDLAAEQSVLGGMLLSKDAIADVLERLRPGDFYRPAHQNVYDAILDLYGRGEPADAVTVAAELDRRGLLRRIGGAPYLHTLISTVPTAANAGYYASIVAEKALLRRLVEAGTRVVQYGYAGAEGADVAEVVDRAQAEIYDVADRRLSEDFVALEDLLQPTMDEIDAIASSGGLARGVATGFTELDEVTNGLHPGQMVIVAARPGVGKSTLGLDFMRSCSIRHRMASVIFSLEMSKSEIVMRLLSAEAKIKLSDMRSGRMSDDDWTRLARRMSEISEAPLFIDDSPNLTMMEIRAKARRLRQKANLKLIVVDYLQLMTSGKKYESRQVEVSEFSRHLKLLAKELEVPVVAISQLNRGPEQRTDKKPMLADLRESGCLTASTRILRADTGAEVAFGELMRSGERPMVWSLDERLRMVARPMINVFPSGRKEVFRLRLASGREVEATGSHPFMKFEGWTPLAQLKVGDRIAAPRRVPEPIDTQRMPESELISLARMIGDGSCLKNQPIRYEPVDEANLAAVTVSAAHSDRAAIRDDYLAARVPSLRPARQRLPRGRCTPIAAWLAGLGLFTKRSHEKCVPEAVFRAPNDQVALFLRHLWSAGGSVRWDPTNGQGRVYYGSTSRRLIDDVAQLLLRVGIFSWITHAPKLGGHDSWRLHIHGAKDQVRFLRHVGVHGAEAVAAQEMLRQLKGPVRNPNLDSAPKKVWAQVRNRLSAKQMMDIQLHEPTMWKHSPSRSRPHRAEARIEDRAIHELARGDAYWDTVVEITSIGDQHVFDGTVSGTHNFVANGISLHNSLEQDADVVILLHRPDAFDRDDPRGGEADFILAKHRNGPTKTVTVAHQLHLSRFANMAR
The experiment is described as follows: DnaB intein splicing inhibitors, dose response, biochemical, cell-free fluorescence (AID 449749). The class given is functional.

Experiment [2] deals with T2, Tyrosyl-DNA phosphodiesterase 2 (Homo sapiens, UniProt O95551).
T2 sequence (O95551 whole entry): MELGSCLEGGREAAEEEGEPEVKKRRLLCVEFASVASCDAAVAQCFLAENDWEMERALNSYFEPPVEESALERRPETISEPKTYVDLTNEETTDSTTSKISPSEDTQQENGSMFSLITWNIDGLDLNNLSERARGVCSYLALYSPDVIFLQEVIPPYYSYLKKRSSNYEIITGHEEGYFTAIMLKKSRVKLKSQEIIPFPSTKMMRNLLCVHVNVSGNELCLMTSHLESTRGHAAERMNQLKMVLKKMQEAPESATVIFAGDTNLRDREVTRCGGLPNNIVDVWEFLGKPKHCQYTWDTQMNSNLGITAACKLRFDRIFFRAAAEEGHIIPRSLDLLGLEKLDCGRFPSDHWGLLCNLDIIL
The experiment is described as follows: potency against TDP2 phosphodiesterase activity – biochemical, epi absorbance, IC50, dose response (AID 743297).

The target of the next experiment is T3, Protein RecA (Mycobacterium tuberculosis, UniProt P9WHJ3).
T3 sequence (P9WHJ3 whole entry): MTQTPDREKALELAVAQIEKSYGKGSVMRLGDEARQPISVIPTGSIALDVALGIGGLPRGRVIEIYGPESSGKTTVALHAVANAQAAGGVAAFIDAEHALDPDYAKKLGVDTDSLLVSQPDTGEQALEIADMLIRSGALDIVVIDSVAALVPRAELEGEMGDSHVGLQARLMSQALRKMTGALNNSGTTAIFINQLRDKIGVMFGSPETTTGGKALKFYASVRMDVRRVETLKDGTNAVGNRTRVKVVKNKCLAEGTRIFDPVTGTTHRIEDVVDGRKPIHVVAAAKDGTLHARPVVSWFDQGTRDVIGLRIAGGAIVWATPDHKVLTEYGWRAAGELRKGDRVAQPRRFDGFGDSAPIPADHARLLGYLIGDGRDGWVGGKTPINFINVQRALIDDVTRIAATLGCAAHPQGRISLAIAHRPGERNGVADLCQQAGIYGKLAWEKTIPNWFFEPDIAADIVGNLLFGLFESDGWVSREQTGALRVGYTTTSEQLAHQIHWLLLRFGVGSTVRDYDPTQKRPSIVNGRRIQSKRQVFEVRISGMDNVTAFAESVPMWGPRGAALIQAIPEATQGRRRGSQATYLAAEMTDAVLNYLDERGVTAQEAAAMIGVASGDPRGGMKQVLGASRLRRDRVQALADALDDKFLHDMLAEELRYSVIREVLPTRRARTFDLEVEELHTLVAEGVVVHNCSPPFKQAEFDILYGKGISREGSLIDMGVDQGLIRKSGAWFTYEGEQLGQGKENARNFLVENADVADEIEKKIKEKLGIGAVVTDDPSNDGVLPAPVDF
The experiment is described as follows: Fluorescence Cell-Free Homogeneous Dose Retest to Identify Inhibitors of RecA-Intein Splicing Activity. [Related pubchem assays (depositor defined):AID2097, AID2223, AID489010, AID492950]. The class given is functional.

The target in experiment [3] is T4, Apoptotic protease-activating factor 1 (Homo sapiens, UniProt O14727).
T4 sequence (O14727 whole entry): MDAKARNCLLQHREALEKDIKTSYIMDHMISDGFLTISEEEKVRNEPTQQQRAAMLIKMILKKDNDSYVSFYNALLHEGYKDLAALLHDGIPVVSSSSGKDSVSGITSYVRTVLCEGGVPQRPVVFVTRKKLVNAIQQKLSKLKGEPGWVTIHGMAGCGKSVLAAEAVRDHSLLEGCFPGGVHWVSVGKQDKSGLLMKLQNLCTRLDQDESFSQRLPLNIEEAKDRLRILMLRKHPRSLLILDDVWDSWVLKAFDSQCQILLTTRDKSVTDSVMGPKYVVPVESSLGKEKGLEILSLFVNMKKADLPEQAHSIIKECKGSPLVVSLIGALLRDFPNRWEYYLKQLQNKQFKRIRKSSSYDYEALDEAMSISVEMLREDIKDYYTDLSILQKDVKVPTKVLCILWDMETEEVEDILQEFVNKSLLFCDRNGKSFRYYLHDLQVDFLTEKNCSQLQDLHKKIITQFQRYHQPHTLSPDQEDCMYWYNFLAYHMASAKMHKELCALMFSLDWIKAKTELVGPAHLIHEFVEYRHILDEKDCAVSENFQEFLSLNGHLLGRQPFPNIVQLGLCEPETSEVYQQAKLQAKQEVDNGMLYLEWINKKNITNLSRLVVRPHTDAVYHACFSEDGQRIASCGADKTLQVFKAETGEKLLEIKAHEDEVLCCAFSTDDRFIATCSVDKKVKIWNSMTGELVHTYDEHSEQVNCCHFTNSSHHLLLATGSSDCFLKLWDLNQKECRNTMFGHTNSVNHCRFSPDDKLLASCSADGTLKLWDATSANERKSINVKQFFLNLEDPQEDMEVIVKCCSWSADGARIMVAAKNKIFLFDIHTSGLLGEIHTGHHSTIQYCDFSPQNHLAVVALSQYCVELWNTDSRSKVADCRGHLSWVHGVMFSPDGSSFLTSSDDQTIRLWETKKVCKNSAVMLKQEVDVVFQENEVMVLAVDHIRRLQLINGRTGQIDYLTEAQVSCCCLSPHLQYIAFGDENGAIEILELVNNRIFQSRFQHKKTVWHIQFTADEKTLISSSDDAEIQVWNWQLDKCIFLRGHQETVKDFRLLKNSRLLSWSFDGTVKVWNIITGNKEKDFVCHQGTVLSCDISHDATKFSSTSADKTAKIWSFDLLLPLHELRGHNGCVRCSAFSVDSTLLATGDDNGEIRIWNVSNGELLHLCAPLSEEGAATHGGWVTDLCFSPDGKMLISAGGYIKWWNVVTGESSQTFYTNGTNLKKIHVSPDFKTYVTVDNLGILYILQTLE
The class given is functional.

The target in the next experiment is T5, Caspase-6 (Homo sapiens, UniProt P55212).
T5 sequence (P55212 whole entry): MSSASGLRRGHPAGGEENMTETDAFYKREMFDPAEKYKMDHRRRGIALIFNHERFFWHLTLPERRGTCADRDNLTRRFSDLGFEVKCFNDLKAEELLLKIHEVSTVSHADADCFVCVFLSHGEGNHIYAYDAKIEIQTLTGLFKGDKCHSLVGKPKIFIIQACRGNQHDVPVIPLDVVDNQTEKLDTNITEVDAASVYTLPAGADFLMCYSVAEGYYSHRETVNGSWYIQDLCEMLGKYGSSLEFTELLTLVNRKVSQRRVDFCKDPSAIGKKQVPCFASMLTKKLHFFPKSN
Briefly: inhibition of CASP6 peptide cleavage – biochemical, VEID-R110 fluorescence, cherry-pick, dose response (AID 720632).

Experiment [4] concerns the target T6, Carboxy-terminal domain RNA polymerase II polypeptide A small phosphatase 1 (Homo sapiens, UniProt Q9GZU7).
T6 sequence (Q9GZU7 whole entry): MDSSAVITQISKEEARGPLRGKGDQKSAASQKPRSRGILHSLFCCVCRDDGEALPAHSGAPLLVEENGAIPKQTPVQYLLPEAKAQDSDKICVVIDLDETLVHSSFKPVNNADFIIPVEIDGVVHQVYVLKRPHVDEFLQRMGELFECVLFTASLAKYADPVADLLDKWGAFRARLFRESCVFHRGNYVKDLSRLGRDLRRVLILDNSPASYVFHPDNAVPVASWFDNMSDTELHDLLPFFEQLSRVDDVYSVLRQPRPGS
The experiment is described as follows: CTDSP1 inhibitors, concentration-response, biochemical, absorbance readout, ultra-high-throughput screen actives (AID 540297). The class given is functional.

Experiment [5] concerns the target Dual specificity protein phosphatase 3 (Homo sapiens, UniProt P51452). Briefly: VHR phosphatase inhibition, dose response, selectivity assay for STEP inhibitor project, biochemical (AID 602374). Particulars: read-out: IC50_Mean. The class given is functional.
In experiment [6] the target is T7, Tyrosine-protein phosphatase non-receptor type 5 (Homo sapiens, UniProt P54829).
T7 sequence (P54829 whole entry): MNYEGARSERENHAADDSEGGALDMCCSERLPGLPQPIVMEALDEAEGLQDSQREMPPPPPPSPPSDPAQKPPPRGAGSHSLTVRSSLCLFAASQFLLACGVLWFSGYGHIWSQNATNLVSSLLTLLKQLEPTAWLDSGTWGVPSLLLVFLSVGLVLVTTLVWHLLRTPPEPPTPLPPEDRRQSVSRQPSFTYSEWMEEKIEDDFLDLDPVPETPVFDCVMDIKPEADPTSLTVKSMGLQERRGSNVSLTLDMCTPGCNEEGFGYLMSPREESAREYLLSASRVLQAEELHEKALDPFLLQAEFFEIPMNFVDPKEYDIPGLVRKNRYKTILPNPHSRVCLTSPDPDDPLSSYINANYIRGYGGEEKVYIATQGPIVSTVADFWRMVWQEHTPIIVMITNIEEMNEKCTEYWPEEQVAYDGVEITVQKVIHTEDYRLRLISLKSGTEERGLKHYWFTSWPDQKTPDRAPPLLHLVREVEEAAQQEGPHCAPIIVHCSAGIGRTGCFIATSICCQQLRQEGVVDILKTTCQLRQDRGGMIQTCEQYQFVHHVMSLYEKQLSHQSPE
The experiment is described as follows: PTPN5 enzyme inhibition – biochemical, fluorescence intensity, uHTS hits, confirmation (AID 602372). The class given is functional. The conditions noted are these: read-out: IC50_Mean.

For experiment [7], the target named is T8, Tyrosine-protein phosphatase non-receptor type 11 (Homo sapiens, UniProt Q06124).
T8 sequence (Q06124 whole entry): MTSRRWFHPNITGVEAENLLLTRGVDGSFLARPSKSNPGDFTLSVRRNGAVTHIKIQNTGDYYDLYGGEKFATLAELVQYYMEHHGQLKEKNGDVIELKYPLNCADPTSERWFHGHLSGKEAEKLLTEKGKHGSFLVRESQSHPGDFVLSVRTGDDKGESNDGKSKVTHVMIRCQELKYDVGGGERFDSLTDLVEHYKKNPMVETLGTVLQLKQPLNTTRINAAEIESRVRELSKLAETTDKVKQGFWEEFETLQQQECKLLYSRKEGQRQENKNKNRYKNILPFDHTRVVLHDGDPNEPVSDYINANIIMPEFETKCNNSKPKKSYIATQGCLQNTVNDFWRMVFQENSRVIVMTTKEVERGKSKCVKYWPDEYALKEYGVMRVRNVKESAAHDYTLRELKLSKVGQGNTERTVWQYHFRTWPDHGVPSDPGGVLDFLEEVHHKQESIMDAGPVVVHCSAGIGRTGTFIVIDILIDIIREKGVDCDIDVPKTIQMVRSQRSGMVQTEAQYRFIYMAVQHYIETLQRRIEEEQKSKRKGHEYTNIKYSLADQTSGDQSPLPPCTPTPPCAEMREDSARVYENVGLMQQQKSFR
Briefly: PTPN11 enzyme inhibitors – biochemical, selectivity assay for STEP inhibitor project, dose response (AID 602367). The class given is functional. The conditions noted are these: read-out: IC50_Mean.

Active and inactive are the calls of the source.

Chain of Dual specificity protein phosphatase 3 (P51452 whole entry): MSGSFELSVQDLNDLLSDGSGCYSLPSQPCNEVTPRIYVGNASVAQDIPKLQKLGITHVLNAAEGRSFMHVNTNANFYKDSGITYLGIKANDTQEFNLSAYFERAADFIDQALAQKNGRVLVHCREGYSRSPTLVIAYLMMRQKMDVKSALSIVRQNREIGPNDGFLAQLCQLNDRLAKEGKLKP

By AC50 is commonly meant the midpoint of the concentration-response curve, whichever way the signal moves. By EC50 is commonly meant the concentration at which the effect is half-maximal. For `COc1ccc(NC2=C(NCCO)C(=O)c3ccccc3C2=O)cc1`, the AC50 is 31.4 µM (active) in experiment [1] and 6.05 µM (active) at Caspase-6. Besides, the IC50 in [2] is 88.7 µM (inactive); in experiment [3], 29.4 µM (active). In addition, the EC50 at Protein RecA is 21.9 µM (active).

Regarding `Cc1c(CC(=O)NCCCCCC(=O)O)c(=O)oc2c(C)c3oc4c(c3cc12)CCCC4`, the IC50 in experiment [4] was 4.72 µM (active); in experiment [5] it was 3.9 µM (active); in experiment [6], 36.4 µM (inactive); in experiment [7], 5.36 µM (active).

The values above are taken from ChEMBL document CHEMBL1201862, “PubChem BioAssay data set” (2004).
